# Assay results from patent US4067997A, “Synergistic microbecidal composition and method” (priority 1976, dated 1978).
# Counter-ions that a name gives are not always drawn. Like-named read-outs stand apart in the source and are kept apart here.
# Legend:
# [1] = system: Corynebacterium sp.; assay: MIC on mass basis (Example V procedure); format: cell-based
# Experimental: (§1) The essential procedure of Example I was followed with a series of phenolic compounds, with the exception that the test method was conducted on a mass (μg/ml) basis rather than a molecular (mol/ml) basis of the foregoing tests, since the long established phenol-coeffecient test is on a mass rather than molecular basis. Additionally, a different but closely related group of organisms were used in this test, in order to give a complete representative span on gram-negative, gram-positive and fungus organisms. Additionally, the phenolic derivatives chosen for test purposes include a number of derivatives which are presently accepted by the FDA as food-grade phenolic microbicides.
# [2] = system: Escherichia coli; assay: MIC on mass basis (Example V procedure); format: cell-based
# Experimental: as §1
# (§2) The same procedure of Example V was repeated but with combinations of mono-laurin (GML).
# (§3) The procedure of Example V was repeated with combinations of glycerol mono-laurin (GML) and ethylenediamine tetraacetic acid (EDTA) as the calcium salt and in combination with BHA.
# [3] = system: Candida albicans; assay: MIC on mass basis (Example V procedure); format: cell-based
# Experimental: as §1, §2, §3
# [4] = system: Nocardia asteroides; assay: MIC on mass basis (Example V procedure); format: cell-based
# Experimental: as §1, §2, §3
# [5] = system: Streptococcus agalactiae; assay: MIC on mass basis (Example V procedure); format: cell-based
# Experimental: as §1, §2, §3
# [6] = system: Staphylococcus aureus; assay: MIC on mass basis (Example V procedure); format: cell-based
# Experimental: as §1, §2, §3
# [7] = system: Pseudomonas aeruginosa; assay: MIC on mass basis (Example V procedure); format: cell-based
# Experimental: as §1, §2, §3
# [8] = system: Saccharomyces cerevisiae; assay: MIC on mass basis (Example V procedure); format: cell-based
# Experimental: as §1, §2, §3
# [9] = system: Streptococcus mutans; assay: MIC on mass basis (Example V procedure); format: cell-based, Streptococcus mutans (ATCC 10441)
# Experimental: as §1, §2, §3
# [10] = system: Streptococcus faecalis (Group D); assay: MIC on mass basis (Example V procedure); format: cell-based; conditions: Enterococcus faecalis, Table 12, Streptococcus faecalis (Group D); read-out: MIC
# Experimental: as §1
# [11] = system: Streptococcus pyogenes; assay: MIC on mass basis (Example V procedure); format: cell-based; conditions: Table 12, Streptococcus pyogenes; read-out: MIC
# Experimental: as §1
# [12] = system: Nocardia asteroides; assay: MIC, broth dilution (Examples I/II); format: cell-based, Nocardia asteroids (3308); conditions: Nocardia asteroides, read-out: Inhibitory concentration
# Experimental: (§4) In order to establish comparative bactericidal and fungicidal results with homologous fatty acids, a series of experiments was performed with thirty straight-chain fatty acids and derivatives thereof. Eight different gram-negative and twelve different gram-positive organisms, representing a very broad spectrum of organisms, were used in these experiments including the fungus Candida (a yeast). Additionally, fatty acids were chosen to show the effects of saturation versus unsaturation, in the fatty acid claim. Standard solutions of the fatty acids and their derivatives were prepared by first dissolving the weighed compounds in 1 to 2 ml of 95% ethanol and immediately pouring this solution into 200 ml of Tripticase Soy Broth. These lipid compounds which are insoluble in water and broth precipitated into very small crystals or droplets. The tubes containing the suspension were warmed to approximately 70° C and were then placed in an ultrasonic tank for further solubilization of the lipid derivatives.
# (§5) Standard solutions (or suspensions) at 1,000 μg/ml were twofold serially diluted with additional broth to a concentration of 125 μg/ml. A 4-ml amount of each dilution was then quickly, and with constant agitation, dispensed into appropriately labeled screw-capped glass tubes (16 by 125 mm). The tubes were sterilized with steam at 15 psi for 15 minutes. After sterilization, all tubes were cooled and incubated overnight at 35° C to insure sterility.
# (§6) All compounds were compared on a molar (micromoles/milliliter) rather than on a mass basis. In the following lists of organisms used, those followed by a parenthetical number are registered with the American Type Culture Collection (ATCC); the remainder were isolates from Providence Hospital or Northland Laboratory.
# (§7) One drop (0.04 ± 0.01 ml) of an 18-hr broth culture containing 10^7 and 10^9 organisms/ml was added to each dilution of the test compound, as well as to a tube of plain broth which served as the positive control. After inoculation, the contents of each tube were well mixed, and the tubes were incubated at 35° C in a 5% carbon dioxide + […] atmosphere.
# (§8) The MIC is defined as the lowest concentration of compound at which no […] evidence of growth was observed when turbidity of the inoculated broth dilutions was compared with control tubes. […] Only a one-tube difference between the bactericidal and bacteriostatic concentrations was normally observed.
# (§9) Standard solutions (1000 μg/ml) of three fatty acids and polyglycerol esters thereof were prepared as described in Example I. Also sucrose esters were prepared by transferring the weighed compounds (0.2 gm. dissolved in 1 ml absolute methanol) into 200 ml of sterile Trypticase Soy Broth (TSB). These standard solutions (1000 μg/ml) were twofold serially diluted with additional sterile broth to a concentration of 125 μg/ml. A 3.8 aliquot of each dilution was asceptically delivered into sterile screw-capped culture tubes. All tubes were incubated overnight at 36° C to insure sterility. The microorganisms used in this example were the same as those used in Example I.
# (§10) The inoculum, 0.05 ml of an 13-24 hour TSB culture (approximately 10^9 organisms/ml) was asceptically delivered into all dilutions of the compounds, mixed well, and incubated at 36° C. A tube of inoculated broth without the compound served as a positive control and an uninoculated set of dilutions incubated along with the test dilutions, served as a negative control.
# (§11) In those cases in which the test compound itself caused turbidity, an aliquot (0.015 ml) of the mixed broth was inoculated onto an agar plate and incubated at 36° C for examination, as described in Example I. The control procedure of Example I was also repeated. The lauric, capric, and oleic acids were used as internal controls and for comparison to Example I. The minimal inhibitory concentrations (μmole/ml) for the compounds studied are given in Tables 7 and 8.
# [13] = system: Streptococcus Group A; assay: MIC, broth dilution (Examples I/II); format: cell-based, beta-hemolytic streptococci Group A; conditions: read-out: Inhibitory concentration, Group A Strep
# Experimental: as §4, §5, §6, §7, §8, §9, §10, §11
# [14] = Table 11, Corynebacterium sp., read-out: MIC
# [15] = Escherichia coli, Table 11, Escherichia coli, read-out: MIC
# [16] = Candida albicans, Table 11, Candida albicans, read-out: MIC
# [17] = Table 11, Nocardia asteroides, read-out: MIC
# [18] = Streptococcus agalactiae, Table 11, Strepococcus agalactiae, read-out: MIC
# [19] = Staphylococcus aureus, Table 11, Staphylococcus aureus, read-out: MIC
# [20] = Pseudomonas aeruginosa, Table 11, Pseudomonas aeruginosa, read-out: MIC
# [21] = Streptococcus mutans, Table 11, Strepococcus mutans, read-out: MIC
# [22] = Table 12, Corynebacterium sp., read-out: MIC
# [23] = Escherichia coli, Table 12, Eschericia coli, read-out: MIC
# [24] = Candida albicans, Table 12, Candida albicans, read-out: MIC
# [25] = Table 12, Nocardia asteroides, read-out: MIC
# [26] = Staphylococcus aureus, Table 12, Staphylococcus aureus, read-out: MIC
# [27] = Pseudomonas aeruginosa, Table 12, Pseudomonas aeruginosa, read-out: MIC
# [28] = Saccharomyces cerevisiae, Table 12, Saccharomyces cerevisiae, read-out: MIC
molecule,measurement,setting,value
"CC(C)(C)c1cc(C(C)(C)C)c(O)c(C(=O)O)c1O [3,5-di-tert-butyl-2,6-dihydroxbenzoic]",MIC,[1]; [14],15.6 µg/mL
same,MIC,[2]; [15],> 1000 µg/mL
same,MIC,[3]; [16],500 µg/mL
same,MIC,[4]; [17],15.6 µg/mL
same,MIC,[5]; [18],15.6 µg/mL
same,MIC,[6]; [19],31.2 µg/mL
same,MIC,[7]; [20],> 1000 µg/mL
same,MIC,[8]; Saccharomyces cerevisiae,500 µg/mL
same,MIC,[9]; [21],31.2 µg/mL
"CC(C)(C)c1cc(O)cc(C(C)(C)C)c1 [3,5-di-tert-butylphenol]",MIC,[1]; Corynebacterium,15.6 µg/mL
same,MIC,[2]; Escherichia coli,> 1000 µg/mL
same,MIC,[3]; Candida albicans,62.5 µg/mL
same,MIC,[4]; Nocardia asteroides,15.6 µg/mL
same,MIC,[5]; Streptococcus agalactiae,31.2 µg/mL
same,MIC,[6]; Staphylococcus aureus,31.2 µg/mL
same,MIC,[7]; Pseudomonas aeruginosa,> 1000 µg/mL
same,MIC,[8]; Saccharomyces cerevisiae,62.5 µg/mL
same,MIC,[9]; Streptococcus mutans,15.6 µg/mL
"CC(C)(C)c1cc(C(C)(C)C)c(O)cc1O [4,6-di-tert-butylresorcinol]",MIC,[1]; [14],7.8 µg/mL
same,MIC,[2]; [15],> 1000 µg/mL
same,MIC,[3]; [16],62.5 µg/mL
same,MIC,[4]; [17],7.8 µg/mL
same,MIC,[5]; [18],15.6 µg/mL
same,MIC,[6]; [19],15.6 µg/mL
same,MIC,[7]; [20],> 1000 µg/mL
same,MIC,[8]; Saccharomyces cerevisiae,15.6 µg/mL
same,MIC,[9]; [21],7.8 µg/mL
"O=C(O)CN(CCN(CC(=O)O)CC(=O)O)CC(=O)O [EDTA (N2 Ca salt), ethylenediamine tetraacetic acid]",MIC,"[2]; Escherichia coli, Table 14, Escherichia coli",< 1000 µg/mL
same,MIC,[3]; Candida albicans,> 1000 µg/mL
same,MIC,[4]; Nocardia asteroides,1000 µg/mL
same,MIC,[5]; Streptococcus agalactiae,> 1000 µg/mL
same,MIC,[6]; Staphylococcus aureus,> 1000 µg/mL
same,MIC,[7]; Pseudomonas aeruginosa,> 1000 µg/mL
same,MIC,"[8]; Saccharomyces cerevisiae, Table 14, Saccharomyces cerevisiae, read-out: MIC",> 1000 µg/mL
same,MIC,[9]; Streptococcus mutans,500 µg/mL
3(2)-tert-butyl-4-methoxyphenol [BHA],MIC,"[1]; Table 11, Corynebacterium sp.",62.50 µg/mL
same,MIC,"[2]; Table 11, Escherichia coli","> 1,000 μg/ml"
same,MIC,"[2]; Table 13, Escherichia coli",500 µg/mL
same,MIC,"[2]; Table 14, Escherichia coli",500 µg/mL
same,MIC,"[3]; Table 11, Candida albicans",125 µg/mL
same,MIC,"[3]; Table 13, Candida albicans",125 µg/mL
same,MIC,"[3]; Table 14, Candida albicans",125 µg/mL
same,MIC,"[4]; Table 11, Nocardia asteroides",125 µg/mL
same,MIC,"[4]; Table 13, Nocardia asteroides",62.50 µg/mL
same,MIC,"[4]; Table 14, Nocardia asteroides",62.50 µg/mL
same,MIC,"[5]; Table 11, Strepococcus agalactiae",125 µg/mL
same,MIC,"[5]; Table 13, Streptococcus agalactiae",62.50 µg/mL
same,MIC,"[5]; Table 14, Streptococcus agalactiae",62.50 µg/mL
same,MIC,"[6]; Table 11, Staphylococcus aureus",125 µg/mL
same,MIC,"[6]; Table 13, Staphylococcus aureus",125 µg/mL
same,MIC,"[6]; Table 14, Staphylococcus aureus",125 µg/mL
same,MIC,"[7]; Table 11, Pseudomonas aeruginosa","> 1,000 μg/ml"
same,MIC,"[7]; Table 13, Pseudomonas aeruginosa","> 1,000 μg/ml"
same,MIC,"[7]; Table 14, Pseudomonas aeruginosa","> 1,000 μg/ml"
same,MIC,"[8]; Table 13, Saccharomyces cerevisiae",125 µg/mL
same,MIC,"[8]; Table 14, Saccharomyces cerevisiae",125 µg/mL
same,MIC,"[9]; Table 11, Strepococcus mutans",62.50 µg/mL
same,MIC,"[9]; Table 13, Streptococcus mutans",62.50 µg/mL
same,MIC,"[9]; Table 14, Streptococcus mutans",62.50 µg/mL
"CCCCCCc1cc(C(C)(C)C)c(O)c(C(C)(C)C)c1 [C6, 2,6-di-tert-4-hexylphenol]",MIC,[1]; [22],5000 µg/mL
same,MIC,[10],> 5000 µg/mL
same,MIC,[11],> 5000 µg/mL
same,MIC,[2]; [23],> 5000 µg/mL
same,MIC,[3]; [24],> 5000 µg/mL
same,MIC,[4]; [25],5000 µg/mL
same,MIC,[6]; [26],> 5000 µg/mL
same,MIC,[7]; [27],> 5000 µg/mL
same,MIC,[8]; [28],> 5000 µg/mL
CCCCCCCCCCC(O)C(=O)O (stereo not drawn) [α-hydroxylaurate],MIC,[12],4.63 mM
same,MIC,[13],230 µM
"CCCCc1cc(C(C)(C)C)c(O)c(C(C)(C)C)c1 [C4, 2,6-di-tert-4-butylphenol]",MIC,[1]; [22],1000 µg/mL
same,MIC,[10],> 5000 µg/mL
same,MIC,[11],5000 µg/mL
same,MIC,[2]; [23],> 5000 µg/mL
same,MIC,[3]; [24],> 5000 µg/mL
same,MIC,[4]; [25],500 µg/mL
same,MIC,[6]; [26],> 5000 µg/mL
same,MIC,[7]; [27],> 5000 µg/mL
same,MIC,[8]; [28],> 5000 µg/mL
"CCCCCCCCc1cc(C(C)(C)C)c(O)c(C(C)(C)C)c1 [C8, 2,6-di-tert-4-octylphenol]",MIC,[1]; [22],5000 µg/mL
same,MIC,[10],> 5000 µg/mL
same,MIC,[11],> 5000 µg/mL
same,MIC,[2]; [23],> 5000 µg/mL
same,MIC,[3]; [24],> 5000 µg/mL
same,MIC,[4]; [25],5000 µg/mL
same,MIC,[6]; [26],> 5000 µg/mL
same,MIC,[7]; [27],> 5000 µg/mL
same,MIC,[8]; [28],> 5000 µg/mL
"CC(C)(C)c1ccc(C(C)(C)C)c(O)c1 [2,5-di-tert-butylphenol]",MIC,[1]; Corynebacterium,7.8 µg/mL
same,MIC,[2]; Escherichia coli,> 1000 µg/mL
same,MIC,[3]; Candida albicans,> 1000 µg/mL
same,MIC,[4]; Nocardia asteroides,7.8 µg/mL
same,MIC,[5]; Streptococcus agalactiae,15.6 µg/mL
same,MIC,[6]; Staphylococcus aureus,62.5 µg/mL
same,MIC,[7]; Pseudomonas aeruginosa,> 1000 µg/mL
same,MIC,[8]; Saccharomyces cerevisiae,62.5 µg/mL
same,MIC,[9]; Streptococcus mutans,7.8 µg/mL
